This is an account of results in ChEMBL document CHEMBL1130669, “Resveratrol as a new type of DNA-cleaving agent” (1998).

The first assay concerns Escherichia coli. As to the kind of experiment: Compound was tested for its ability to inhibit DNA strand scission induced by resveratrol and Cu2+, at concentration 1 mM. Type of assay: functional.
As a reminder, the inhibition is the change of the read-out against control, counted positive when it falls. `O=S(=O)(O)c1cc(O)c(O)c(S(=O)(=O)O)c1` [TIRON] displayed an inhibition at 1000 µM of 96.5%. As to `Cc1ccoc1C`, the inhibition at 1000 µM was found to be 98.7%.

For another assay, the system named is Escherichia coli. As to the kind of experiment: Compound was tested for its ability to inhibit DNA strand scission induced by resveratrol and Cu2+, at concentration 50 mM. Type of assay: functional.
Turning to `OC[C@@H](O)[C@@H](O)[C@H](O)[C@H](O)CO` [MANNITOL], the inhibition at 50000 µM was found to be 0.6%. Still for that read-out and setting: to `NC(N)=S` [THIOUREA] belongs 93.8%; to `[N-]=[N+]=[N-]` [SODIUM AZIDE], 1.2%; to `[I-].[K+]` [POTASSIUM IODIDE], 61.5%. `CCO` [ALCOHOL] registered an inhibition at 50000 µM of 1.9%. Regarding `C[S+](C)[O-]` [DIMETHYL SULFOXIDE], testing at 50000 µM gave an inhibition of 2.8%.
